Assay [1] addresses EGFR (Homo sapiens, UniProt P00533). Nature of the assay: EGFR binding curve of PA-cetuximab with and without thrombin (FIG. 4).
The subject of assay [2] is head and neck cancer cell line (Cal-27). Nature of the assay: Immunohistocytochemistry, HRP-dependent DAB staining (FIG. 4). It is filed as cell-based.
In assay [3] the target is Thrombin (Homo sapiens, UniProt P00734). Nature of the assay: Gel electrophoresis of PA-cetuximab after thrombin treatment (FIG. 5). It counts as biochemical. Particulars: thrombin activation. The text has this: Protease cleavage of blocked PA-cetuximab causes size change as CDR blocking domains is proteolytically released from cetuximab panibody. Lane 1 is a protein marker.

Assay [4] deals with orthotopic Cal-27 xenograft tumors. Nature of the assay: In vivo ratiometric fluorescence imaging of RACPPs in orthotopic tongue tumor model. Particulars: mice, orthotopic Cal-27 tongue tumors, IV injection. The text has this:
FIG. 2. In vivo ratiometric fluorescence imaging of RACPPs in orthotopic tongue tumor model (Cal27) for protease selective probes.

As for “(Acety-QGQSGQCISPRGCPDGPYVMY-PEG6-(Nle-TPRSFL)-PEG24)n-cetuximab [PA-cetuximab]”, the EGFR binding entry in assay [1] (after thrombin treatment, EGFR protein) is on record as “allow binding”; in assay [1] (without thrombin (solid line)) it was “blocked”. The “Binding to Cal-27 cells (DAB staining on membranes)” value in assay [2] (FIG. 4 panel C, equivalent with no antibody control (E)) was “blocks binding”; in assay [2] (FIG. 4 panel D) it was “binding”. The “Binding to cells (Cal-27) that express EGFR” value in assay [2] (after thrombin treatment) is given as “allow binding”. Further, the “Change in size of inhibited complex on acrylamide gel” value in assay [3] is given as “size shift”.

Turning to “KLRFSQK [Cy5/Cy7 RACPP, cathepsin cleavable probe]”, the “Ratiometric fluorescence labeling of tumor versus adjacent tissue” value (“Ratiometric fluorescence labeling” for short) in assay [4] is reported as “very selective targeting to cancerous tongue”.

In the case of PLGC(me)AG, in assay [4], the “Ratiometric fluorescence labeling” value is reported as “good cleavage in the tumor but also had high signal in adjacent tongue”.

As for TGRAAA, the “Ratiometric fluorescence labeling” value in assay [4] is recorded as “high level localized uptake at the center of the tumor”.

As for YGRAAA, the “Ratiometric fluorescence labeling” value in assay [4] was “tumor specific labeling at high intensity with very low labeling of adjacent tissue”.

Values taken from patent US20220288223A1, “ACTIVATABLE SPECIFIC BINDING MEMBER COMPLEXES, AND METHODS OF MAKING AND USING SAME” (The Regents of the University of California, priority 2019, published 2022).
